The record followed here is ChEMBL document CHEMBL4052697, “Chimeric analogs of human β-defensin 1 and θ-defensin disrupt pre-established bacterial biofilms” (2017).

Common to all, as to assay type: functional
For assay [1], the system named is Escherichia coli. Kind of assay: Antibiofilm activity against pre-established 36 hrs old bacterial biofilms of Escherichia coli MG1655 incubated for 4 hrs by XTT assay.
The test system of assay [2] is Staphylococcus aureus. Kind of assay: Antibiofilm activity against pre-established 36 hrs old bacterial biofilms of Staphylococcus aureus NCTC 8530 incubated for 4 hrs by XTT assay. On the technique in general: Formazan colour is commonly taken as a measure of viable cells.
Assay [3] has as its system Escherichia coli. Kind of assay: Bactericidal activity against Escherichia coli MG1655 planktonic forms.
Assay [4] has as its system Staphylococcus aureus. Kind of assay: Bactericidal activity against Staphylococcus aureus NCTC 8530 planktonic forms.

In brackets after ≈: the same amount, converted by molar mass. Activity calls are given as the source filed them. The rule behind the calls is not given here. Bounds are passed on as bounds.

The MBC is the lowest tested concentration that kills the bacteria rather than only halting them. A higher MBC goes with less potent killing.

Regarding `CCCCCCCCCCCCCC(=O)N[C@@H](C)C(=O)N[C@H](C(=O)N[C@@H](Cc1ccc(O)cc1)C(=O)N[C@H](CCCNC(=N)N)C(=O)N[C@H](C(=O)NCC(=O)N[C@H](CCCNC(=N)N)C(=O)N[C@@H](C)C(=O)N[C@H](C(=O)N[C@H](CCCNC(=N)N)C(=O)N[C@@H](CCC(=O)O)C(=O)N[C@@H](CO)C(=O)N[C@@H](CC(C)C)C(=O)N[C@@H](CO)C(=O)NCC(=O)N[C@H](C(=O)N[C@@H](CCC(=O)O)C(=O)N[C@H](C(=O)N[C@@H](CO)C(=O)NCC(=O)N[C@H](CCCNC(=N)N)C(=O)N[C@@H](CC(C)C)C(=O)N[C@@H](Cc1ccc(O)cc1)C(=O)N[C@H](CCCNC(=N)N)C(=O)N[C@@H](CC(C)C)C(=O)N[C@@H](CCCNC(=N)N)C(=O)O)[C@@H](C)CC)C(C)C)[C@@H](C)O)[C@@H](C)O)[C@@H](C)O`, the MBEC entry with Escherichia coli [1] and with Staphylococcus aureus [2] was “inactive” in each case. Besides, the MBC against Escherichia coli [3] stood at 5 µM (≈ 15.9 µg/mL); against Staphylococcus aureus [4], 7.5 µM (≈ 23.8 µg/mL).
Consider `CCCCCCCCCCCCCC(=O)N[C@@H](C)C(=O)N[C@H](C(=O)N[C@@H](Cc1ccc(O)cc1)C(=O)N[C@@H](CCCNC(=N)N)C(=O)N[C@H](C(=O)NCC(=O)N[C@@H](CCCNC(=N)N)C(=O)N[C@@H](C)C(=O)N[C@H](C(=O)N[C@@H](CCCNC(=N)N)C(=O)N[C@@H](CCC(=O)O)C(=O)N[C@@H](CO)C(=O)N[C@@H](CC(C)C)C(=O)N[C@@H](CO)C(=O)NCC(=O)N[C@H](C(=O)N[C@@H](CCC(=O)O)C(=O)N[C@H](C(=O)N[C@@H](CO)C(=O)NCC(=O)N[C@@H](CCCNC(=N)N)C(=O)N[C@@H](CC(C)C)C(=O)N[C@@H](Cc1ccc(O)cc1)C(=O)N[C@@H](CCCNC(=N)N)C(=O)N[C@@H](CC(C)C)C(=O)N[C@@H](CCCNC(=N)N)C(=O)O)[C@@H](C)CC)C(C)C)[C@@H](C)O)[C@@H](C)O)[C@@H](C)O`, for which the MBEC result in the assay on Escherichia coli [1] and in the assay on Staphylococcus aureus [2] was “inactive” in each case. The MBC worked out at 5 µM (≈ 15.9 µg/mL) with Escherichia coli [3] and 7.5 µM (≈ 23.8 µg/mL) against Staphylococcus aureus [4].
`CCCCCCCCCCCCCC(=O)N[C@@H](C)C(=O)N[C@@H](Cc1ccccc1)C(=O)N[C@H](C(=O)N[C@@H](CCCNC(=N)N)C(=O)N[C@@H](CCCNC(=N)N)C(=O)N[C@@H](CCCNC(=N)N)C(=O)N[C@@H](CO)C(=O)N[C@@H](Cc1ccc(O)cc1)C(=O)N[C@@H](CO)C(=O)N[C@H](C(=O)N[C@@H](CCC(=O)O)C(=O)N[C@@H](Cc1ccc(O)cc1)C(=O)N[C@@H](CO)C(=O)N[C@@H](Cc1ccc(O)cc1)C(=O)NCC(=O)N[C@H](C(=O)N[C@H](C(=O)N[C@H](C(N)=O)C(C)C)[C@@H](C)O)[C@@H](C)O)[C@@H](C)O)[C@@H](C)O`: the MBEC entry in the assay on Escherichia coli [1] and in the assay on Staphylococcus aureus [2] was “inactive” each time. In addition, the MBC stood at 10 µM (≈ 23.5 µg/mL) with Escherichia coli [3] and 20 µM (≈ 47.1 µg/mL) with Staphylococcus aureus [4].
With `CCCCCCCCCCCC(=O)N[C@@H](C)C(=O)N[C@H](C(=O)N[C@@H](Cc1ccc(O)cc1)C(=O)N[C@H](CCCNC(=N)N)C(=O)N[C@H](C(=O)NCC(=O)N[C@H](CCCNC(=N)N)C(=O)N[C@@H](C)C(=O)N[C@H](C(=O)N[C@H](CCCNC(=N)N)C(=O)N[C@@H](CCC(=O)O)C(=O)N[C@@H](CO)C(=O)N[C@@H](CC(C)C)C(=O)N[C@@H](CO)C(=O)NCC(=O)N[C@H](C(=O)N[C@@H](CCC(=O)O)C(=O)N[C@H](C(=O)N[C@@H](CO)C(=O)NCC(=O)N[C@H](CCCNC(=N)N)C(=O)N[C@@H](CC(C)C)C(=O)N[C@@H](Cc1ccc(O)cc1)C(=O)N[C@H](CCCNC(=N)N)C(=O)N[C@@H](CC(C)C)C(=O)N[C@@H](CCCNC(=N)N)C(=O)O)[C@@H](C)CC)C(C)C)[C@@H](C)O)[C@@H](C)O)[C@@H](C)O`, the MBEC result with Escherichia coli [1] and with Staphylococcus aureus [2] was “inactive” each time. Further, the MBC stood at 10 µM (≈ 31.5 µg/mL) in the assay on Escherichia coli [3] and 20 µM (≈ 63 µg/mL) in the assay on Staphylococcus aureus [4].
As to `CC[C@H](C)[C@H](NC(=O)[C@H](CCC(=O)O)NC(=O)[C@@H](NC(=O)CNC(=O)[C@H](CO)NC(=O)[C@H](CC(C)C)NC(=O)[C@H](CO)NC(=O)[C@H](CCC(=O)O)NC(=O)[C@H](CCCNC(=N)N)NC(=O)[C@@H](NC(=O)[C@H](C)NC(=O)[C@H](CCCNC(=N)N)NC(=O)CNC(=O)[C@@H](NC(=O)[C@H](CCCNC(=N)N)NC(=O)[C@H](Cc1ccc(O)cc1)NC(=O)[C@@H](NC(=O)[C@H](C)N)[C@@H](C)O)[C@@H](C)O)[C@@H](C)O)C(C)C)C(=O)N[C@@H](CO)C(=O)NCC(=O)N[C@@H](CCCNC(=N)N)C(=O)N[C@@H](CC(C)C)C(=O)N[C@@H](Cc1ccc(O)cc1)C(=O)N[C@@H](CCCNC(=N)N)C(=O)N[C@@H](CC(C)C)C(=O)N[C@@H](CCCNC(=N)N)C(=O)O`, the MBEC result in the assay on Escherichia coli [1] and in the assay on Staphylococcus aureus [2] was “inactive” throughout. Further, the MBC was 50 µM (≈ 148 µg/mL) with Escherichia coli [3] and over 100 µM with Staphylococcus aureus [4].
On to `CCCCCCCCCCCC(=O)N[C@@H](C)C(=O)N[C@H](C(=O)N[C@@H](Cc1ccc(O)cc1)C(=O)N[C@@H](CCCNC(=N)N)C(=O)N[C@H](C(=O)NCC(=O)N[C@@H](CCCNC(=N)N)C(=O)N[C@@H](C)C(=O)N[C@H](C(=O)N[C@@H](CCCNC(=N)N)C(=O)N[C@@H](CCC(=O)O)C(=O)N[C@@H](CO)C(=O)N[C@@H](CC(C)C)C(=O)N[C@@H](CO)C(=O)NCC(=O)N[C@H](C(=O)N[C@@H](CCC(=O)O)C(=O)N[C@H](C(=O)N[C@@H](CO)C(=O)NCC(=O)N[C@@H](CCCNC(=N)N)C(=O)N[C@@H](CC(C)C)C(=O)N[C@@H](Cc1ccc(O)cc1)C(=O)N[C@@H](CCCNC(=N)N)C(=O)N[C@@H](CC(C)C)C(=O)N[C@@H](CCCNC(=N)N)C(=O)O)[C@@H](C)CC)C(C)C)[C@@H](C)O)[C@@H](C)O)[C@@H](C)O`, for which the MBEC entry with Escherichia coli [1] and with Staphylococcus aureus [2] was “inactive” throughout. The minimum bactericidal concentration (MBC) is 20 µM (≈ 63 µg/mL) with Escherichia coli [3] and 2 µM (≈ 6.3 µg/mL) with Staphylococcus aureus [4].
With `CCCCCCCCCCCCCC(=O)N[C@@H](C)C(=O)N[C@@H](Cc1ccccc1)C(=O)N[C@H](C(=O)N[C@H](CCCNC(=N)N)C(=O)N[C@H](CCCNC(=N)N)C(=O)N[C@H](CCCNC(=N)N)C(=O)N[C@@H](CO)C(=O)N[C@@H](Cc1ccc(O)cc1)C(=O)N[C@@H](CO)C(=O)N[C@H](C(=O)N[C@@H](CCC(=O)O)C(=O)N[C@@H](Cc1ccc(O)cc1)C(=O)N[C@@H](CO)C(=O)N[C@@H](Cc1ccc(O)cc1)C(=O)NCC(=O)N[C@H](C(=O)N[C@H](C(=O)N[C@H](C(N)=O)C(C)C)[C@@H](C)O)[C@@H](C)O)[C@@H](C)O)[C@@H](C)O`, the MBEC entry in the assay with Escherichia coli [1] and in the assay on Staphylococcus aureus [2] was “inactive” in each case. Besides, the MBC in the assay with Escherichia coli [3] is 20 µM (≈ 47.1 µg/mL); against Staphylococcus aureus [4], 50 µM (≈ 118 µg/mL).
With `CC[C@H](C)[C@H](NC(=O)[C@H](CCC(=O)O)NC(=O)[C@@H](NC(=O)CNC(=O)[C@H](CO)NC(=O)[C@H](CC(C)C)NC(=O)[C@H](CO)NC(=O)[C@H](CCC(=O)O)NC(=O)[C@@H](CCCNC(=N)N)NC(=O)[C@@H](NC(=O)[C@H](C)NC(=O)[C@@H](CCCNC(=N)N)NC(=O)CNC(=O)[C@@H](NC(=O)[C@@H](CCCNC(=N)N)NC(=O)[C@H](Cc1ccc(O)cc1)NC(=O)[C@@H](NC(=O)[C@H](C)N)[C@@H](C)O)[C@@H](C)O)[C@@H](C)O)C(C)C)C(=O)N[C@@H](CO)C(=O)NCC(=O)N[C@H](CCCNC(=N)N)C(=O)N[C@@H](CC(C)C)C(=O)N[C@@H](Cc1ccc(O)cc1)C(=O)N[C@H](CCCNC(=N)N)C(=O)N[C@@H](CC(C)C)C(=O)N[C@@H](CCCNC(=N)N)C(=O)O`, the MBEC entry in the assay on Escherichia coli [1] and with Staphylococcus aureus [2] was “inactive” in each case. The MBC against Escherichia coli [3] is 50 µM (≈ 148 µg/mL); in the assay on Staphylococcus aureus [4], over 100 µM.
